Data reported in ChEMBL document CHEMBL6134848, “Deuteration Strategy-Inspired Design of Novel Diarylpyrimidine Derivatives as Potent Non-Nucleoside Reverse Transcriptase Inhibitors Featuring Improved Efficacy, Selectivity, and Druggability” (J Med Chem, 2025).

Experiments:
[1] = Tmax in Sprague-Dawley rat at 1 mg/kg, iv measured for 0.083 to 24 hrs by LC-MS/MS analysis; type: ADME, organism-based; settings: in vivo, time 0.083-24 hrs
[2] = Stability in human plasma assessed as compound remaining at 1 uM measured after 3 hrs by LC-MS/MS analysis; type: ADME, cell-free; settings: read-out: Stability
[3] = Drug metabolism in dog liver microsomes assessed as metabolic fraction at 1 uM measured up to 45 mins by LC/MS/MS analysis; type: ADME, Canis lupus familiaris, Microsome; settings: microsomes, 0.75 h, 1 µM
[4] = Protein binding in human plasma assessed as unbound fraction at 1 uM incubated for 6 hrs; type: ADME, cell-free
[5] = Acute toxicity in ICR mouse assessed as pathological change in kidney at 2000 mg/kg, IG measured for 14 days by H and E staining based analysis; type: organism-based; settings: in vivo, po, 336 h, time 14 day
[6] = test system: Human immunodeficiency virus 1; test: Antiviral activity against drug-resistant HIV-1 harboring RT L100I mutant infected in human MT4 cells assessed as protection against virus-induced cytopathicity measured after 5 days post-infection by MTT assay; type: functional, organism-based; settings: Human immunodeficiency virus 1, MT4, 120 h

[2H]C([2H])([2H])c1cc(C#N)cc(C([2H])([2H])[2H])c1Oc1nc(NC2CCN(Cc3ccc(S(N)(=O)=O)cc3)CC2)nc2ccsc12
Tmax [1]: 4.8 min | remaining at 3 h, 1 µM [2]: 92.2% | Fm [3]: 17.3% | Fu [4]: 0.453% | Activity [5]: Non-toxic | EC50 [6]: 2.61 nM
